We go through 18 molecules from ChEMBL document CHEMBL1770058, “MMP-13 selective alpha-sulfone hydroxamates: identification of selective P1' amides” (Bioorg Med Chem Lett, 2011).

Data set [1] concerns the target Matrix metalloproteinase-14 (Homo sapiens, UniProt P50281). Kind of data set: Inhibition of human MMP14.
Another data set deals with T1, Interstitial collagenase (Homo sapiens, UniProt P03956).
T1 sequence (P03956 whole entry): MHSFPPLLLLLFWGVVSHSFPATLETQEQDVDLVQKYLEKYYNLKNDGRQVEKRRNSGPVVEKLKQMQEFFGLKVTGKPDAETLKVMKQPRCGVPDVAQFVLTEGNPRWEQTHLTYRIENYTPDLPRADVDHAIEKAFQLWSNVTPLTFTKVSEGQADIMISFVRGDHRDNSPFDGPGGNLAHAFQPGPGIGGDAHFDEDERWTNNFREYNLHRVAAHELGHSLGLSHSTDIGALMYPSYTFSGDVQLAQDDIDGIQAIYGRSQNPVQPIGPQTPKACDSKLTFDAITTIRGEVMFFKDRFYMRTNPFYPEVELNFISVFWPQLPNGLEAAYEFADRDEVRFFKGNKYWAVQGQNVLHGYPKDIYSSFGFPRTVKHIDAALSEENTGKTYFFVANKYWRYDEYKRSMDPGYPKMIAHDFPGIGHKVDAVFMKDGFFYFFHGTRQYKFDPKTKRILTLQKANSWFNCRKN
In words: Inhibition of human MMP1.

For data set [2], the target named is 72 kDa type IV collagenase (Homo sapiens, UniProt P08253). In words: Inhibition of human MMP2.
Sequence of 72 kDa type IV collagenase (P08253 whole entry): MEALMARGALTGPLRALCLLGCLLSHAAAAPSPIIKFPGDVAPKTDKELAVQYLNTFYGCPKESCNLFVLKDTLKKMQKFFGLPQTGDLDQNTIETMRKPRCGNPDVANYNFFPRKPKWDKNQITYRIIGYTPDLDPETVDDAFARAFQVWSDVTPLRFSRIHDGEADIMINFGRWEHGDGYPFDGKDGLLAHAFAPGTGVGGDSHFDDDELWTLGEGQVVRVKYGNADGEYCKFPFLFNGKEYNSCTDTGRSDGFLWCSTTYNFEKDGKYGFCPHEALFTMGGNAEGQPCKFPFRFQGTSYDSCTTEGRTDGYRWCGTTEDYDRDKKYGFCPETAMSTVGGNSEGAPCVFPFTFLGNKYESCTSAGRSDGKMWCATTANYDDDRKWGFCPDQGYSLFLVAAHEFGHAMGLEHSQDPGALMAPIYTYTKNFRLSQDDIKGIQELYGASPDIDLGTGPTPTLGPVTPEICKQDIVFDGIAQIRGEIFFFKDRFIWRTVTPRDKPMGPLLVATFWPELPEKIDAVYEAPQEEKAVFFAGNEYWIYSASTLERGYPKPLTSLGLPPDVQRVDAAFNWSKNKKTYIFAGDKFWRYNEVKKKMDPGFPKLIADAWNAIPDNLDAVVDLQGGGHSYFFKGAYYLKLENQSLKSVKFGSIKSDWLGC
In data set [3] the target is Matrix metalloproteinase-9 (Homo sapiens, UniProt P14780). In words: Inhibition of human MMP9.
Sequence of Matrix metalloproteinase-9 (P14780 whole entry): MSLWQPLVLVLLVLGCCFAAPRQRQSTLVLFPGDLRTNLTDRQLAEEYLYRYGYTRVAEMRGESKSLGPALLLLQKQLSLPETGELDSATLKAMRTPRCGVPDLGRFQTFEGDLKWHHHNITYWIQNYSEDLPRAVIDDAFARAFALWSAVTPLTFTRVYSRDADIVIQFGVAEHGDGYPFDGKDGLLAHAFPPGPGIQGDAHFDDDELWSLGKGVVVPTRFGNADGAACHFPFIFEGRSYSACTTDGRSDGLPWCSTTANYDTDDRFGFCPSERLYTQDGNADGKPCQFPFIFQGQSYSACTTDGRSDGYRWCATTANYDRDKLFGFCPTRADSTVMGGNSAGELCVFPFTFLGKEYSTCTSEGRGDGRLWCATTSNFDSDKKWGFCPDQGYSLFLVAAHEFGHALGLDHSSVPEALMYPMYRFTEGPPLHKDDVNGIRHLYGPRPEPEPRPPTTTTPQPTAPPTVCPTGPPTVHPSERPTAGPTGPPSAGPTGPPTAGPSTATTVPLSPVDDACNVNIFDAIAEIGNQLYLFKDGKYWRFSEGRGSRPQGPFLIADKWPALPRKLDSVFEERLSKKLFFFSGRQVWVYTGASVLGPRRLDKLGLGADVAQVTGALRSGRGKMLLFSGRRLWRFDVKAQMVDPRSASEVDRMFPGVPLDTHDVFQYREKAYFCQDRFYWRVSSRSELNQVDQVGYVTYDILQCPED
A further data set has as its target Collagenase 3 (Homo sapiens, UniProt P45452). Kind of data set: Inhibition of human MMP13.
A further data set addresses Neutrophil collagenase (Homo sapiens, UniProt P22894). In words: Inhibition of human MMP8.
Data set [4] in a line: Half life in rat. The class given is ADME, organism-based. The settings on record: in vivo.
Data set [5] in a line: Bioavailability in rat. The note with it: in vivo. It is filed as ADME, organism-based.

Sequence of Neutrophil collagenase (P22894 whole entry): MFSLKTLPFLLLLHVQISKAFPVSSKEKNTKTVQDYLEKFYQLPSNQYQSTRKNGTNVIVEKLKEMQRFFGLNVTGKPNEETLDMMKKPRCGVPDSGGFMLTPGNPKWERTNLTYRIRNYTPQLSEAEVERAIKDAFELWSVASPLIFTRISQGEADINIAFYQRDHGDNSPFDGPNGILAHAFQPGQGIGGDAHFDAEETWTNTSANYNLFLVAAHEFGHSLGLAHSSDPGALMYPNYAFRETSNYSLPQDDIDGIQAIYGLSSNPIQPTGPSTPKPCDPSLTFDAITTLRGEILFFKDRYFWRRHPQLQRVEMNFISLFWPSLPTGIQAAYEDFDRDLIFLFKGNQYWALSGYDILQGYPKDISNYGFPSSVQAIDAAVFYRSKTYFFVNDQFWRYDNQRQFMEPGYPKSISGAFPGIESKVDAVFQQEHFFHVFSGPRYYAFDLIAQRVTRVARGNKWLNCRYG

For orientation: IC50 means the concentration that gives 50% inhibition. On to `C#CCN1CCC(C(=O)NO)(S(=O)(=O)c2ccc(Sc3ccccc3)cc2)CC1`, for which the IC50 in data set [1] was 8 nM; on Interstitial collagenase, over 5000 nM.
In the case of `COc1ccc(NC(=O)CCCOc2ccc(S(=O)(=O)C3(C(=O)NO)CCOCC3)cc2)cc1`, the IC50 in data set [2] worked out at 2.5 nM; in data set [3], 23 nM; at Collagenase 3 it was 0.3 nM; against Neutrophil collagenase it was 31 nM.
Turning to `CN(C(=O)CCCOc1ccc(S(=O)(=O)C2(C(=O)NO)CCOCC2)cc1)c1ccc(OC(F)(F)F)cc1`, the IC50 stood at 270 nM in data set [2], 380 nM in data set [3], 3.3 nM against Collagenase 3 and 49 nM on Neutrophil collagenase.
The like results for `CN(C)c1ccc(C(=O)C2CCN(c3ccc(S(=O)(=O)C4(C(=O)NO)CCOCC4)cc3)CC2)cc1` were, in that order, 4000 nM, over 10000 nM, 8 nM and over 10000 nM.
The like results for `CN(C)c1ccc(C(=O)CCCCOc2ccc(S(=O)(=O)C3(C(=O)NO)CCOCC3)cc2)cc1` were, in that order, 35 nM, 1100 nM, 0.4 nM and 140 nM.
Usually half-life stands for the time in which the quantity being followed falls by half. Low values mean rapid decline, high ones slow decline. As usually defined, the bioavailability is the share of a dose that reaches the circulation, judged against a reference dose that is usually intravenous. A low value points to poor availability. Turning to `COc1ccc(C(=O)NCCCOc2ccc(S(=O)(=O)C3(C(=O)NO)CCOCC3)cc2)cc1`, the half-life in data set [4] is 34.8 min. The molecule further showed an IC50 on Neutrophil collagenase of 900 nM. In addition, the bioavailability in data set [5] was 1.5%.
Take `CN(C)c1ccc(C(=O)NCCCOc2ccc(S(=O)(=O)C3(C(=O)NO)CCOCC3)cc2)cc1`: the values for the IC50 (in data set [2]; on Collagenase 3; against Neutrophil collagenase) were 1100 nM, 2 nM and 1000 nM, respectively.
In the case of `O=C(NCCCOc1ccc(S(=O)(=O)C2(C(=O)NO)CCOCC2)cc1)c1ccc(OC(F)(F)F)cc1`, the IC50 was 360 nM in data set [2], 2200 nM in data set [3], 0.66 nM on Collagenase 3 and 140 nM against Neutrophil collagenase.
`Cc1ccc(C(=O)NCCCOc2ccc(S(=O)(=O)C3(C(=O)NO)CCOCC3)cc2)c(C)c1`: the IC50 at Collagenase 3 was 8 nM; against Neutrophil collagenase, 700 nM.
As for `O=C(NCCCOc1ccc(S(=O)(=O)C2(C(=O)NO)CCOCC2)cc1)C1CCCCC1`, the IC50 on Collagenase 3 stood at 8.2 nM; against Neutrophil collagenase, 3100 nM.
On to `CCCC(C)(C)C(=O)NCCCOc1ccc(S(=O)(=O)C2(C(=O)NO)CCOCC2)cc1`, for which the IC50 against Collagenase 3 was 30 nM; against Neutrophil collagenase, 1200 nM.
On to `CN(C)c1ccc(C(=O)CCOc2ccc(S(=O)(=O)C3(C(=O)NO)CCOCC3)cc2)cc1`, for which the IC50 in data set [2] is 16 nM; against Collagenase 3, 0.9 nM; against Neutrophil collagenase, 120 nM.
Regarding `CN(C)c1ccc(C(=O)CCCOc2ccc(S(=O)(=O)C3(C(=O)NO)CCOCC3)cc2)cc1`, 170 nM corresponded to half-maximal inhibition on Neutrophil collagenase (IC50).
Regarding `CN(C)c1ccc(NC(=O)CCCOc2ccc(S(=O)(=O)C3(C(=O)NO)CCOCC3)cc2)cc1`, the values for the IC50 (in data set [2]; on Neutrophil collagenase) were 10 nM and 100 nM, respectively.
As to `O=C(CCCOc1ccc(S(=O)(=O)C2(C(=O)NO)CCOCC2)cc1)Nc1ccc(OC(F)(F)F)cc1`, the IC50 in data set [2] stood at 11 nM; against Neutrophil collagenase, 6.7 nM.
Regarding `O=C(CCCOc1ccc(S(=O)(=O)C2(C(=O)NO)CCOCC2)cc1)N1CCCCC1`, the IC50 in data set [2] worked out at 170 nM; in data set [3], 670 nM; against Collagenase 3 it was 1.2 nM; against Neutrophil collagenase, 800 nM.
On Neutrophil collagenase, `CN(C)c1ccc(NC(=O)CCCCOc2ccc(S(=O)(=O)C3(C(=O)NO)CCOCC3)cc2)cc1` displayed an IC50 of 2.6 nM.
Turning to `COc1ccc(OCCCCOc2ccc(S(=O)(=O)C3(C(=O)NO)CCOCC3)cc2)cc1`, 67 nM corresponded to half-maximal inhibition against Neutrophil collagenase (IC50).
